The values below come from US20180163221A1, “TRANSGENIC PLANTS EXPRESSING TYPE 2C PROTEIN PHOSPHATASE ABSCISIC ACID (PP2CABA) PROTEINS AND USES THEREOF” (Academia Sinica, priority 2016, published 2018).

The subject of data set [1] is PP2CABA promoter. As to the kind of experiment: GUS staining of transgenic rice carrying PP2CABA:GUS treated with ABA. Format: in vivo, Oryza sativa. To be noted: 10 μM ABA for 1 day; basal meristem region in root tips, LR primordia and young leaves. As for the experimental part: (§1) FIG. 3A to FIG. 3D include diagrams showing plants have higher PP2CABA expression under induction by ABA and abiotic stress and are expressed in meristematic tissues. […] Ten-day-old rice seedlings were treated with 5 μM ABA, 200 mM NaCl, dehydration on tissue papers, or 4° C. for 3 hours. Total RNAs were purified from shoots and roots, and subjected to quantitative RT-PCR analysis using gene specific primers. […] Ten-day-old WT rice seedlings were treated with various concentrations of ABA for 24 hours. Total RNAs were purified from roots, and subjected to quantitative RT-PCR analysis using PP2CABA-specific primers. […] Recombinant GST-PP2CABA, GST-PP2CABA (D100A), GST-ABI2, and GST proteins were expressed in E. coli, purified and reacted with a phosphor peptide substrate, RRApTVA, and phosphatase activities were determined by measuring released free phosphate. […] Ten-day-old seedlings of transgenic rice carrying PP2CABA:GUS were treated with (lower panel) or without (upper panel) 10 μM ABA for 1 day and then stained for GUS activity. Arrow indicates young leaves.
Tissues were placed in GUS assay buffer containing (0.1 M NaPO4 buffer pH 7.0, 10 mM EDTA, 0.1% Triton X-100, 0.5 mM potassium ferricyanide pH 7.0, and 1.0 mM X-glucuronide) and incubated overnight at 37° C. Vacuum aspiration was applied during initial 30 minutes. […]

For data set [2], the system named is rice seedlings. To be noted: Chen et al. 2015; cited from earlier work.
The subject of data set [3] is rice roots. The experiment in a line: Histochemical staining of root sections for lignin (acriflavine) and suberin (fluorol yellow 088). Format: in vivo, Oryza sativa. To be noted: 1 μM ABA, 3 days. As for the experimental part: FIG. 10A to FIG. 10B include photos showing ABA and PP2CABA enhance the accumulation of lignin and suberin in cell walls of root peripheral layers and increase the root diameter. […] 1 μM ABA was added and seedlings were cultured for another 3 days. […] Roots at 1 cm above the apex were cross-sectioned and stained with acriflavine for lignin and fluorol yellow 088 for suberin. F, fluorescence image; T, transmission image; EP, epidermis; EX, exodermis; SC, sclerenchyma; CO, cortex. Scale bars=10 μm.
Methonal fixed roots were embedded in 5% agar and cut into 100 μm cross sections using a vibratome (DOSAKA DTK-1000). To check for autofluorescence, sections were viewed under a Zeiss Axiolmager Z1 fluorescence microscope with UV illumination using excitation filter G 365, chromatic beam splitter FT 395, and barrier filter LP 420. To check for lignin distribution, sections were stained with Acriflavine as described (Rocha et al., Front Plant Sci, 5:102 (2014)). Sections were imaged with a Zeiss LSM 510 META confocal microscope using a 488 nm laser line for excitation and a 505 to 550 nm band pass filter for emission. To check for suberin lamellae, sections were stained with Fluorol Yellow 088 as described (Brundrett et al., Biotech Histochem, 66:111 (1991); Landgraf et al., Plant Cell, 26:3403 (2014)). […]

The subject of data set [4] is genes essential for lignin and suberin biosynthesis. The experiment in a line: Quantitative RT-PCR of lignin and suberin biosynthesis genes in roots of ABA-treated WT rice. The format is in vivo, Oryza sativa. To be noted: ABA 24 hours, except PAL and CAD. An excerpt: FIG. 9A to FIG. 9B include diagrams showing that ABA and PP2CABA up-regulating the expression of genes essential for lignin and suberin biosynthesis. […] Total RNA was purified from roots and subjected to quantitative RT-PCR analysis using gene specific primers.
Total RNA was purified from rice tissues using Trizol reagent (Invitrogen) and treated with RNase-free DNase I (Promega). The DNase-digested RNA sample was used for reverse transcription by Superscript III reverse transcriptase (Invitrogen). Samples, which served as cDNA stocks for PCR analysis, were stored at −70° C. RT-PCR analysis was performed in a 50-μl solution containing 5-μl cDNA stock using Taq DNA polymerase (Viogene). RT-PCR products were fractionated in a 1.5% agarose gel and visualized by ethidium bromide staining. All RT-PCR analyses were performed from at least two batches of RNA samples with similar results. For quantitative RT-PCR analyses, 5-μl of cDNA was mixed with primers and the 2× Power SYBR Green PCR Master Mix reagent (Roche) and applied to an ABI 7500 Real-Time PCR system (Applied Biosystems). The quantitative variation between different samples was evaluated by the Δ-Δ cycle threshold method, and the amplification of ubiquitin 5 was used as an internal control to normalize all data.

For data set [5], the system named is rice seedlings. The experiment in a line: Lateral root growth and root diameter of rice seedlings treated with ABA. Format: in vivo, Oryza sativa. To be noted: 1 μM ABA. As for the experimental part: FIG. 5A to FIG. 5B include photos showing plants have lower LR to PR ratio under induction of ABA and expression of PP2CABA. […] Ten-day-old seedlings of segregated wild type (WT) or pp2caba homozygous mutant were treated with (+) or without (−) 1 μM ABA for 3 days. Upper panel: morphology of roots. Lower panel: elongation of LR in boxed area (1 cm above the root tip) of roots in upper panel. LRP (marked by arrowheads) were initiated but not elongated in WT in the presence of ABA. […] Upper panel: morphology of roots. Lower panel: elongation of LR in boxed area (2 cm above the root tip) of roots in upper panel. LRP (marked by arrowheads) were initiated but not elongated in PP2CABA-overexpressing transgenic rice. S: seminal roots. C: crown roots.
The japonica rice (Oryza sativa cv Tainung 67) was used in this study. Plasmids were introduced into Agrobacterium tumefaciens strain EHA105, and rice transformation was performed as described (Chen et al., J Biol Chem, 277:13641 (2002)). The PP2CABA mutant seeds were obtained from the Taiwan Rice Insertional Mutant (TRIM) library (Hsing et al., Plant Molecular Biology, 63:351 (2007)). For hydroponic culture of rice seedlings, seeds were sterilized with 3% NaOCl for 30 minutes, washed extensively with distilled water, and germinated in petri dishes with wetted filter papers at 37° C. in the dark. After 48 h of incubation, germinated seeds were cultivated in Yoshida solution (Yoshida et al., International Rice Research Institute, 3 (1976)). The culture solution was replaced with fresh solution every 2 days. For observation of root growth in glass tube with phytagel, sterilized rice seeds were germinated on the surface of plate with Yoshida solution with 0.3% phytagel without sugar in the dark at 28° C. for about 48 hours. The germinated seedlings were then transplanted to glass tubes, which were 22 cm in height and 4.5 cm in diameter, and each filled with 150 ml Yoshida solution with 0.3% phytagel without sugar. 6 cm plastic dish was used to cover the glass tube and sealed by micropore tape to allow light penetration and gas exchange and prevent the medium from becoming contaminated by external microbes. Seedlings were grown under a 14-h-light/10-h-dark cycle in a 28° C. chamber.

In data set [6] the test system is PP2CABA expression in roots. As to the kind of experiment: Quantitative RT-PCR of PP2CABA expression in roots of ABA-treated rice seedlings. The format is in vivo, Oryza sativa. To be noted: various concentrations of ABA, 24 hours. As for the experimental part:
FIG. 3A to FIG. 3D include diagrams showing plants have higher PP2CABA expression under induction by ABA and abiotic stress and are expressed in meristematic tissues. […] Ten-day-old rice seedlings were treated with 5 μM ABA, 200 mM NaCl, dehydration on tissue papers, or 4° C. for 3 hours. Total RNAs were purified from shoots and roots, and subjected to quantitative RT-PCR analysis using gene specific primers. […] Ten-day-old WT rice seedlings were treated with various concentrations of ABA for 24 hours. Total RNAs were purified from roots, and subjected to quantitative RT-PCR analysis using PP2CABA-specific primers. […] Recombinant GST-PP2CABA, GST-PP2CABA (D100A), GST-ABI2, and GST proteins were expressed in E. coli, purified and reacted with a phosphor peptide substrate, RRApTVA, and phosphatase activities were determined by measuring released free phosphate. […]
Total RNA was purified from rice tissues using Trizol reagent (Invitrogen) and treated with RNase-free DNase I (Promega). […] For quantitative RT-PCR analyses, 5-μl of cDNA was mixed with primers and the 2× Power SYBR Green PCR Master Mix reagent (Roche) and applied to an ABI 7500 Real-Time PCR system (Applied Biosystems). The quantitative variation between different samples was evaluated by the Δ-Δ cycle threshold method, and the amplification of ubiquitin 5 was used as an internal control to normalize all data.

Data set [7] addresses T1, phosphor peptide substrate RRApTVA.
T1 chain: RRATVA

Data set [8] concerns phosphor peptide substrate, RRApTVA. The experiment in a line: Phosphatase activity assay of GST fusion proteins (released free phosphate). Format: biochemical. To be noted: recombinant GST fusion protein from E. coli, synthetic phosphopeptide. As for the experimental part: as §1
FIG. 6A to FIG. 6E include diagrams showing PP2CABA having two forms which are translated from the first and the second ATG codons. […] The 2nd ATG encodes the Met at amino acid residue 41. Amino acids 1-24 are putative signal peptide (SP). […] Protein loading is shown by the Ponceau S staining (lower panel). […]

Where only a bound is given, the exact number is not on record here.

On to `CC1=CC(=O)CC(C)(C)[C@@]1(O)/C=C/C(C)=C\C(=O)O` [ABA, abscisic acid], for which, in data set [1], the “PP2CABA promoter activity (GUS)” value was “induced”. Further, in data set [2], the “ABA concentrations that enhance LR growth” value is at most 0.1 µM and the “ABA concentrations that inhibit LR growth” value was at least 0.2 µM. In data set [3], the “accumulation of lignin and suberin in endodermal and exodermal cell layers in roots” value was “enhanced the accumulation of lignin and suberin”. In data set [4], the “expression of lignin and suberin biosynthesis genes” value is given as “induced”. Besides, the “LR growth, WT compared with pp2caba” value in data set [5] is reported as “more severely inhibited in WT than in pp2caba mutant”. For the same molecule, the “LR growth in WT” value in data set [5] (3 days, WT seedlings, maturation zones of roots) is “completely inhibited”. The “LR growth in pp2caba” value in data set [5] (3 days, pp2caba homozygous mutant, maturation zones of roots) is “stunted”. Moreover, in data set [5] (both WT and pp2caba), the root diameter entry is “enlarged”. For the same molecule, in data set [6], the “dose dependence of PP2CABA expression in roots” value is on record as “increased with ABA concentrations in a dose-dependent manner”.

B1: GST-PP2CABA (protein)
chain: LSQGAEEEEDDGEVRLMGLAGEAAGSPGSGGGFSANGKFSYGYASSPGKRSSMEDFYDTRIDGVDGETVGLFGVFDGHGGARAAEFVKQNLFTNLIKHPKLFSDTKSAIAETYTSTDSELLKAETSHNRDAGSTASTAILVGDRLLVANVGDSRAVICRGGDAIAVSRDHKPDQSDERQRIEDAGGFVMWAGTWRVGGVLAVSRAFGDKLLKQYVVADPEIKEEVVDSSLEFLILASDGLWDVVTNEEAVAMVKPILDSEQAAKKLLQEASQRGSADNITCLVVRFLEQENHLPERPTNDQAS
As for B1, the “phosphatase activity (released free phosphate)” value in data set [7] is “GST-PP2CABA fusion protein expressed and purified from E. coli exhibited phosphatase activity”.

B2: GST-PP2CABA: GST-PP2CABA fusion protein expressed and purified from E. coli (protein)
chain: B1 chain
modifications: left off: a dimerising Fc or GST
notes: GST-PP2CABA fusion protein expressed and purified from E. coli
With B2, in data set [8], the phosphatase activity entry is “exhibited phosphatase activity”.

B3: GST-PP2CABA(25-327) (protein)
chain: B1 chain
Consider B3, for which, in data set [7], the “phosphatase activity (released free phosphate)” value was “both of L form and S form of PP2CABA have phosphatase activities”.

B4: GST-PPCABA(41-327) (protein)
chain: MGLAGEAAGSPGSGGGFSANGKFSYGYASSPGKRSSMEDFYDTRIDGVDGETVGLFGVFDGHGGARAAEFVKQNLFTNLIKHPKLFSDTKSAIAETYTSTDSELLKAETSHNRDAGSTASTAILVGDRLLVANVGDSRAVICRGGDAIAVSRDHKPDQSDERQRIEDAGGFVMWAGTWRVGGVLAVSRAFGDKLLKQYVVADPEIKEEVVDSSLEFLILASDGLWDVVTNEEAVAMVKPILDSEQAAKKLLQEASQRGSADNITCLVVRFLEQENHLPERPTNDQAS
In the case of B4, the “phosphatase activity (released free phosphate)” value in data set [7] is “both of L form and S form of PP2CABA have phosphatase activities”. Further, the phosphatase activity result in data set [8] is “have phosphatase activities”.
